PubChem BioAssay AID488890 (Southern Research Specialized Biocontainment Screening …, 2010)
Records with an inconclusive call do not appear. Activity calls are given as the source filed them. The rule behind the calls is not given here.

Test system: Mycobacterium tuberculosis non-replicating, growth inhibition
Test: growth inhibition of non-replicating M. tuberculosis (AID 488890)

Row | SMILES | IC50
1 | CCCOC(=O)c1ccc(NC(=O)C2C3C=CC(O3)C2C(=O)O)cc1 (configuration not stated) | 9.27 µM
2 | C=CCc1cc(Cl)ccc1OCCCn1ccnc1 | 8.18 µM
3 | CC(C)c1ccc(OCC(=O)NNC(=O)c2cnccn2)cc1 | 11.9 µM (inactive)
4 | Cc1ccc(CCC(=O)Nc2cc(Cl)ccc2Cl)o1 | 3.79 µM
5 | O=C(NCCc1ccccc1)c1nc(-c2cccs2)no1 | 2.21 µM
6 | CNC(=S)N1CCN(c2c(F)cc3c(=O)c(C(=O)O)cn(C4CC4)c3c2OC)CC1C (configuration not stated) | 0.42 µM
7 | Cc1cc([N+](=O)[O-])ccc1NC(=O)Nc1ccc(F)cc1F | 21.9 µM (inactive)
8 | C=C[C@]1(C)C=C2CCC3[C@](C)(CCC[C@@]3(C)C(=O)O)C2CC1 (some centres not stated) | 6.33 µM
9 | CC(=O)c1ccc(C(=O)Nc2nnc(-c3ccc(Cl)cc3)o2)cc1 | 4.03 µM
10 | Cc1cc(Br)ccc1OCC(=O)NNC(=O)C(=O)Nc1ccccc1 | 1.22 µM
11 | Cc1nc2c(=O)n(C)c(=O)n(C)c2nc1Cl | 10.3 µM (inactive)
12 | O=[N+]([O-])c1cc(-c2nc(-c3ccncc3)no2)cc([N+](=O)[O-])c1 | 1.59 µM
13 | COc1ccc(N2C(=O)CC(Sc3nc4ccccc4s3)C2=O)cc1OC (configuration not stated) | 14.2 µM (inactive)
14 | Cc1cc(C)c2ccc(/C=N/O)nc2c1O | 5.77 µM
15 | O=C(Cc1ccccc1)Nc1ccc(C(=O)NCC2COc3ccccc3O2)cc1 (configuration not stated) | 28.3 µM (inactive)
16 | O=C(COc1ccc(-c2ccccc2)cc1)Nc1cccnc1 | 3.28 µM
17 | CCCOc1ccc(C(=O)NNC(=S)NC(=O)c2ccco2)cc1 | 3.83 µM
18 | COc1ccc(C(=O)Oc2c(CN3CCOCC3)cc(Cl)c3cccnc23)cc1OC | 15.3 µM (inactive)
19 | CCC(=O)Nc1nc2ccccc2n1Cc1ccccc1 | 4.86 µM
20 | Oc1ccccc1/C=N/Nc1ncc(Br)cn1 | 1.12 µM
21 | O=C(O)c1ccc(NS(=O)(=O)/C=C/c2ccccc2)cc1O | 3.11 µM

Row | SMILES | IC50
22 | O=C(N/N=C/c1ccc([N+](=O)[O-])s1)c1cccc(Br)c1 | 4.95 µM
23 | COc1ccc(N=N/C(=C\O)C(=O)c2cccs2)cc1 | 9.69 µM
24 | Cc1ccc(NC(=O)c2noc(C(C)C)c2[N+](=O)[O-])cc1 | 19.3 µM (inactive)
25 | CCOC(=O)c1c(C)n(C)c2ccc(OC(C)C(=O)OC)cc12 (configuration not stated) | 14.2 µM (inactive)
26 | CCN(CC)C(=O)c1sc2nc(-c3ccccc3)ccc2c1N | 14.7 µM (inactive)
27 | O=C(COC(=O)Cc1ccc(Br)cc1)Nc1ccc(N2CCOCC2)cc1 | 39.1 µM (inactive)
28 | O=[N+]([O-])c1c(Nc2ccccn2)cc(Cl)c2nonc12 | < 0.1 µM
29 | COc1cc(/C=C2/C(=O)NN(c3cccc(C)c3)C2=O)ccc1OC(=O)c1ccco1 | 5.53 µM
30 | CC(C)C[C@H]1CN=C(Nc2ccccc2)N1CCCC1CCCCC1 | 8.79 µM
31 | Cc1ccsc1C(=O)OCC(=O)Nc1nnc(-c2ccccc2)o1 | 18.2 µM (inactive)
32 | COc1ccc(C(=O)COC(=O)c2ccc([N+](=O)[O-])s2)cc1OC | 2.8 µM
33 | COc1ccc(OC(=O)C2CC(=O)N(c3ccc(C)cc3)C2)cc1 (configuration not stated) | 9.65 µM
34 | O=C(NCCC1=CCCCC1)c1ccc(Br)o1 | 2.31 µM
35 | CCCCCC(=O)N/N=C(\C)c1ccccn1 | 9.55 µM
36 | CN(C)CCCn1c(=O)n(C2CCCCC2)c(=O)c2c3c(sc21)CCCCC3 | 20.7 µM (inactive)
37 | CCOC(=O)c1ccc(-n2c(CCC(=O)O)ccc2-c2cccs2)cc1 | 36.2 µM (inactive)
38 | CCOC(=O)Nc1ccc2c(c1)N(C(=O)CCCl)c1ccccc1[S@]2=O | 3.68 µM
39 | N=C1/C(=C/c2ccc(OC(=O)c3ccco3)cc2)C(=O)N=C2SC=CN12 | 5.02 µM
40 | O=C(Nc1nccs1)c1ccccn1 | 14.5 µM (inactive)
41 | CCOc1cc(-c2nnc(NC(=O)c3ccco3)o2)cc(OCC)c1OCC | 21.6 µM (inactive)
42 | O=C(COc1ccccc1)Nc1ccc(F)cc1 | 8.5 µM

Row | SMILES | IC50
43 | COc1cc(Cl)cc(/C=N/NC(N)=O)c1O | 10.2 µM (inactive)
44 | OC(CNCC(c1ccc(Cl)cc1Cl)c1c[nH]c2ccccc12)c1ccccc1 (configuration not stated) | 10.9 µM (inactive)
45 | CCOC(=O)c1ccc(COC(=O)c2ccc(-c3nnc(-c4ccccc4)o3)cc2)o1 | 6.43 µM
46 | Cc1cc(OCCOCCNCc2ccccc2)ccc1C(C)C | 15.1 µM (inactive)
47 | CC(/C=C/c1ccccc1)=N\NC(=O)c1ccc2c(c1)OCCO2 | 8.02 µM
48 | Clc1cccc(/C=N\Nc2nccs2)c1 | 12 µM (inactive)
49 | CCc1ccc(N2C(=O)CC(N3CCC(C(=O)OC)CC3)C2=O)cc1 (configuration not stated) | 34.6 µM (inactive)
50 | C=C1CCC[C@]2(C)C[C@H]3OC(=O)C(CNC(C)CCCC(C)C)[C@H]3CC12 (some centres not stated) | 15.3 µM (inactive)
51 | O=C(COc1ccc2ccccc2c1)N1CCCC1 | 14.7 µM (inactive)
52 | Cc1ccc(CNC(=O)c2ccc([N+](=O)[O-])o2)cc1 | 0.46 µM
53 | Cc1ccnc(NC(=O)COc2ccc3c(c2)CCC3)c1 | 1.7 µM
54 | COc1ccc(N=N/C(=C\O)C(=O)c2ccco2)cc1 | 21.5 µM (inactive)
55 | O=C(COC(=O)c1ccc(Br)o1)Nc1ncc([N+](=O)[O-])s1 | 14.4 µM (inactive)
56 | CCOc1ccc(NC(=O)CCNC(=O)c2ccc(Br)cc2)cc1 | 13.8 µM (inactive)
57 | Cc1ccc(NC(=O)C2CC2c2ccccc2)cc1 (configuration not stated) | 15 µM (inactive)
58 | COc1cccc(OCC(=O)NNC(=O)C(=O)Nc2cccc(C)c2)c1 | 6.72 µM
59 | COc1ccc(NC(=O)c2ccc(-c3ccc([N+](=O)[O-])cc3)o2)cc1OC | 3.93 µM
60 | CCN(CC)S(=O)(=O)c1ccc(C(=O)OCn2nnc3ccccc3c2=O)cc1 | 15.4 µM (inactive)
61 | CSc1ccc(N=Nc2c(C)[nH]n(C)c2=O)cc1 | 20.6 µM (inactive)
62 | CCN1CCN(c2ccc(S(=O)(=O)N3CCCCC3)cc2NC(=O)c2ccc([N+](=O)[O-])s2)CC1 | 7.39 µM
63 | Cc1ccc(C(=O)Nc2nccs2)cc1 | 19.8 µM (inactive)

Row | SMILES | IC50
64 | O=C(CCNc1ccc(Cl)cc1)c1cccs1 | 3.79 µM
65 | COC(=O)COc1ccc(S(=O)(=O)N2CCN(c3ccccc3F)CC2)cc1 | 27.9 µM (inactive)
66 | O=C(COc1ccc2ccccc2c1)N/N=C/c1ccccn1 | 6.72 µM
67 | O=C(Oc1ccccc1)c1cc2ccccc2o1 | 6.73 µM
68 | CC(C)c1nnc(NC(=O)c2cc3cc(Br)ccc3oc2=O)s1 | 4.33 µM
69 | CCCCCCCC(=O)N/N=C(\C)c1ccc(O)cc1O | 1.57 µM
70 | N/N=C(/Cc1nc2ccccc2[nH]1)c1ccc([N+](=O)[O-])cc1 | 1.06 µM
71 | CCn1nnc(NC(=O)c2ccc([N+](=O)[O-])o2)n1 | 9.04 µM
72 | Clc1ccc(OCCCCN2CCc3ccccc3C2)cc1 | 9.36 µM
73 | COc1ccc(N2C(=O)C(F)(F)C2c2cccc(F)c2)cc1 (configuration not stated) | 2.15 µM
74 | CCOC(=O)C1CCCN(Cc2nc(Cc3ccccc3Cl)no2)C1 (configuration not stated) | 27.1 µM (inactive)
75 | Cc1cc(C)nc(Sc2ncnc(N)c2[N+](=O)[O-])n1 | 10.7 µM (inactive)
76 | Brc1ccc(OCCCCN2CCCCC2)cc1 | 41.7 µM (inactive)
77 | CC1(C(=O)OCC(=O)Nc2nnc(-c3ccccc3)o2)CC1(Cl)Cl (configuration not stated) | 3.19 µM
78 | C#CCSc1nnc(-c2ccc([N+](=O)[O-])cc2)o1 | < 0.1 µM
79 | C=CCn1c(C)cc(C2=NNC(=NCc3ccccc3)SC2)c1C | 7.71 µM
80 | Cc1ccccc1Nc1c(-c2ccccn2)nc2ccccn12 | 13.9 µM (inactive)
81 | COc1cccc(-c2nnc(NC(=O)c3cccc(F)c3)o2)c1 | 11.1 µM (inactive)
82 | O=C1NC2(CCC3(CC2)OCCO3)NN1c1ccc(Cl)cc1 | 0.84 µM
